Test results reported in paper PMC4737481 (Bioorganic & medicinal chemistry letters, 2015).
Entries after “also recorded” stand apart in the source; their conditions may differ. Like-named read-outs stand apart in the source and are kept apart here.

Key:
P-glycoprotein = details: ref not given; cited from earlier work
CYP3A4 [1] = biological target: T1, CYP3A4 (Homo sapiens, UniProt P08684); details: background statement on 1; cited from earlier work
[2] = ref not given, cited from earlier work
Chagas' disease = details: dog, oral 50 mg/kg BID for 14 days; cited from earlier work
[3] = stability to cultured liver microsomes; assay type: in vitro ADME; details: in words
MDCK cell monolayers = test: permeability in MDCK cell monolayers; assay type: in vitro ADME; details: in words
T. cruzi parasites = details: cited from earlier work
CYP3A4 [4] = biological target: T1, CYP3A4; test: inhibition of CYP3A4 in vitro; assay type: in vitro ADME
T cruzi = T cruzi infected mice, 20 mg/kg BID (ip) for 27 days; cited from earlier work
[5] = in vivo PK studies in mice; details: PO 40 mg/kg
[6] = test system: intracellular T. cruzi in C2C12 host cells; test: antitrypanosomal high-content imaging assay; assay type: cell-based

T1 sequence (P08684 whole entry): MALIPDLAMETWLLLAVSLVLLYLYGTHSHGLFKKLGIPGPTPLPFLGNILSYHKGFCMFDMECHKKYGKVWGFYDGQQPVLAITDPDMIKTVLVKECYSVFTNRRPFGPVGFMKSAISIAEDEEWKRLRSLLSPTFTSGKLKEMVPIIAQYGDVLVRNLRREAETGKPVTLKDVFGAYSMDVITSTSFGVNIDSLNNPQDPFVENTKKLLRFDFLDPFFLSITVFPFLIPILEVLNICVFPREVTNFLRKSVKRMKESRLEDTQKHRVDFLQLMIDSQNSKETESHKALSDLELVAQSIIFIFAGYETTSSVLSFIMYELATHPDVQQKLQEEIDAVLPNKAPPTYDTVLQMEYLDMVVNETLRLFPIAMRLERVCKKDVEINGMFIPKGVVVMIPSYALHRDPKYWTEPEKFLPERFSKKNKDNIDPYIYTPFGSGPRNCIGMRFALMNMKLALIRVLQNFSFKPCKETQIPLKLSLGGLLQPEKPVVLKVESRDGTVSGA

## CN1CCN(C(=O)N[C@@H](Cc2ccccc2)C(=O)N[C@H](/C=C/S(=O)(=O)c2ccccc2)CCc2ccccc2)CC1 [Compound 1, K777]
P-glycoprotein
  P-glycoprotein substrate: substrate for P-glycoprotein
CYP3A4 [1]
  CYP3A4 inhibition (in words): irreversibly inhibits CYP3A4; also recorded: low μM regime
[2]
  dose-exposure pharmacokinetics: nonlinear dose-exposure pharmacokinetics
[2]; species not stated
  oral bioavailability: 5–20%
Chagas' disease
  cardiac tissue damage: partially protected animals from cardiac tissue damage
  parasitemia: reduced parasitemia below levels detectable by hemocytometry

## CCCCC(C(=O)COc1c(F)c(F)cc(F)c1F)n1cc([C@@](C)(NCc2ccc3ncccc3c2)C(C)C)nn1 (stereo partly drawn) [Compound 4]
[3]
  stability to cultured liver microsomes: reasonable stability
MDCK cell monolayers
  Permeability in an MDCK cell monolayer assay: modest-to-low
T. cruzi parasites
  activity against T. cruzi parasites in two different cell-based assays: effective
CYP3A4 [4]
  CYP3A4 inhibition (in words): low μM regime
T cruzi
  hematological cure (treated animals): 2/4

## CCCCC(C(=O)COc1c(F)c(F)cc(F)c1F)n1cc([C@@](C)(NCc2ccc3ncccc3c2)C2CCCC2)nn1 (stereo partly drawn) [Compound 8]
[5]
  Exposure following PO dosing relative to compound 4: two-fold higher

## CCCCC(C(=O)COc1c(F)c(F)cc(F)c1F)n1cc([C@@](C)(NCc2ccn3nccc3n2)C(C)C)nn1 (stereo partly drawn) [Compound 20]
[6]; Trypanosoma cruzi, C2C12, read-out: T. cruzi IC50
  IC50: 10 nM

## CCCCC(C(=O)COc1c(F)c(F)cc(F)c1F)n1cc([C@@](C)(NCc2ccn3nccc3n2)C2CCCC2)nn1 (stereo partly drawn) [Compound 21]
[5]
  Exposure following PO dosing relative to compound 4: two-fold higher
[6]; assay not specified
  improvement of in vitro potency relative to 4: ~ 10 fold
